Data as given in PubChem BioAssay (NCI).
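Protocol summary: plate cells (96-well), add compound at 5 concentrations, incubate 48 h, interpolate endpoints linearly. TGI marks complete inhibition of growth.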

Legend:
Test in all cases: NCI anticancer screen, dose series, 48 h
RXF-631 renal = system: RXF-631 renal
M19-MEL melanoma = system: M19-MEL melanoma
HOP-18 NSCLC = system: HOP-18 NSCLC
KM20L2 colon = system: KM20L2 colon
LXFL 529 NSCLC = system: LXFL 529 NSCLC
XF 498 CNS = system: XF 498 CNS
DMS 114 small cell lung = system: DMS 114 small cell lung
SNB-78 CNS = system: SNB-78 CNS
DLD-1 colon = system: DLD-1 colon

Measured: TGI

C=CCNC(=O)N(CCCCC(NC(C)=O)C(=O)NCc1ccccc1)Cc1ccccc1 (stereo unspecified)
not listed: DMS 114 small cell lung | SNB-78 CNS | DLD-1 colon
> 100 µM: all other assays above

BrC1=CCC23CC=C(Br)[C@H]4CC2(COC3)C[C@@H]1O4 (stereo partly specified)
> 100 µM: M19-MEL melanoma | DMS 114 small cell lung | KM20L2 colon | LXFL 529 NSCLC | XF 498 CNS
93.6 µM: SNB-78 CNS

O=c1cc(-c2ccccc2)c2ccccc2[nH]1
51.4 µM: DMS 114 small cell lung
> 100 µM: M19-MEL melanoma | HOP-18 NSCLC | LXFL 529 NSCLC | DLD-1 colon

COc1ccc(/C=N/N=C(\N)NO)cc1O
> 100 µM: DMS 114 small cell lung | SNB-78 CNS | HOP-18 NSCLC | LXFL 529 NSCLC | DLD-1 colon

Cc1ccc(NCC(=O)N2CC(=O)Nc3ccccc32)c(C)c1
not listed: RXF-631 renal | DMS 114 small cell lung
> 100 µM: all other assays above

CS(=O)(=O)OC1CCC2(C#N)CCC1C2=O (stereo unspecified)
not listed: DMS 114 small cell lung
> 100 µM: all other assays above

CC(C)=CC1C[C@H](C2CC=C3C2(C)CCC2[C@@]3(C)C(=O)CC3[C@]2(C)C=CC(=O)[C@]3(C)CO)CO1 (stereo partly specified)
12.9 µM: XF 498 CNS
48.4 µM: SNB-78 CNS
15.9 µM: DMS 114 small cell lung
30.1 µM: HOP-18 NSCLC
19.1 µM: KM20L2 colon
16.7 µM: M19-MEL melanoma
12.1 µM: LXFL 529 NSCLC

[N-]=[N+]=NC(CCl)c1cn([C@H]2C[C@H](O)[C@@H](CO)O2)c(=O)[nH]c1=O (stereo partly specified)
not listed: RXF-631 renal | XF 498 CNS
> 100 µM: all other assays above
